# Where two headings read alike, the source gives them in different places. Bridge positions count the residues as written; N and C are the ends. Peptide text beside a SMILES is read from it.
# Target: T1, endothelin receptor (Bos taurus, UniProt P28088)
# T1 construct: from tissue; host or cells: bovine cerebellar membrane fraction
# T1 sequence (P28088 27-441): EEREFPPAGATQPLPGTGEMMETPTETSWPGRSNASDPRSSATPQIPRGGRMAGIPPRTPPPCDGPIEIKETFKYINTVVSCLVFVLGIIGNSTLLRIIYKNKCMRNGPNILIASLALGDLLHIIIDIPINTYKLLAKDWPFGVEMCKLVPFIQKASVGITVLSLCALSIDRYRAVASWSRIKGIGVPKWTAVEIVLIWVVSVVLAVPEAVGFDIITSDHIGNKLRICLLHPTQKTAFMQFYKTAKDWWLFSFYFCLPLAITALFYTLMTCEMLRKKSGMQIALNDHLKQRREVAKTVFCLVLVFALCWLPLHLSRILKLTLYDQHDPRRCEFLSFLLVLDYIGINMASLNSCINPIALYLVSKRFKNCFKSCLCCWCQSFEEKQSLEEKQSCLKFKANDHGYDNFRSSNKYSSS
# Assay: Endothelin receptor-antagonizing effect: 125I-endothelin-1 binding to bovine cerebellar tissue membrane fraction
# [1] = bovine cerebellar tissue membrane fraction
IC50 [1] [µM],SMILES,IC50 [µM]
,CC[C@H](C)[C@H](NC(=O)[C@H](Cc1c[nH]c2ccccc12)NC(=O)[C@@H]1CC(=O)NCC(=O)N[C@@H](CC(N)=O)C(=O)N[C@@H](Cc2c[nH]c3ccccc23)C(=O)N[C@@H](Cc2c[nH]cn2)C(=O)NCC(=O)N[C@@H]([C@@H](C)O)C(=O)N[C@@H](C)C(=O)N2CCC[C@H]2C(=O)N1)C(=O)N[C@H](C(=O)N[C@@H](Cc1c[nH]c2ccccc12)C(=O)O)[C@@H](C)CC [Compound I-27] (GNWHGTAPDWIIW-OH; lactam N-9),> 6
,C[C@@H]1NC(=O)[C@H](C)NC(=O)[C@H]([C@@H](C)O)NC(=O)CNC(=O)[C@H](Cc2c[nH]cn2)NC(=O)[C@H](Cc2c[nH]c3ccccc23)NC(=O)[C@H](CC(N)=O)NC(=O)CNC(=O)C[C@@H](C(=O)N[C@@H](Cc2c[nH]c3ccccc23)C(=O)N[C@@H](Cc2ccccc2)C(=O)N[C@@H](Cc2ccccc2)C(=O)N[C@@H](CC(N)=O)C(=O)N[C@@H](Cc2ccc(O)cc2)C(=O)N[C@@H](Cc2ccc(O)cc2)C(=O)N[C@@H](Cc2c[nH]c3ccccc23)C(=O)O)NC1=O [Compound I-36] (GNWHGTAADWFFNYYW-OH; lactam N-9),> 0.57
,CC(=O)N[C@H]1CSSC[C@@H](C(=O)N[C@@H](Cc2c[nH]c3ccccc23)C(=O)N[C@@H](Cc2ccccc2)C(=O)N[C@@H](Cc2ccccc2)C(=O)N[C@@H](CC(N)=O)C(=O)N[C@@H](Cc2ccc(O)cc2)C(=O)N[C@@H](Cc2ccc(O)cc2)C(=O)N[C@@H](Cc2c[nH]c3ccccc23)C(=O)O)NC(=O)[C@@H]2CCCN2C(=O)[C@H](C)NC(=O)[C@H]([C@@H](C)O)NC(=O)CNC(=O)[C@H](Cc2c[nH]cn2)NC(=O)[C@H](Cc2c[nH]c3ccccc23)NC(=O)[C@H](CC(N)=O)NC1=O [Compound I-8] (Ac-CNWHGTAPCWFFNYYW-OH; disulfide 1-9),> 5
,C[C@@H]1NC(=O)[C@H]([C@@H](C)O)NC(=O)CNC(=O)[C@H](Cc2c[nH]cn2)NC(=O)[C@H](Cc2c[nH]c3ccccc23)NC(=O)[C@H](CC(N)=O)NC(=O)CNC(=O)C[C@@H](C(=O)N[C@@H](Cc2c[nH]c3ccccc23)C(=O)O)NC(=O)[C@@H]2CCCN2C1=O [Compound I-15] (GNWHGTAPDW-OH; lactam N-9),> 0.9
,C[C@@H]1NC(=O)[C@H]([C@@H](C)O)NC(=O)CNC(=O)[C@H](Cc2c[nH]cn2)NC(=O)[C@H](Cc2c[nH]c3ccccc23)NC(=O)[C@H](CC(N)=O)NC(=O)[C@@H](N)CSSC[C@@H](C(=O)N[C@@H](Cc2c[nH]c3ccccc23)C(=O)N[C@@H](Cc2ccccc2)C(=O)N[C@@H](Cc2ccccc2)C(=O)N[C@@H](CC(N)=O)C(=O)N[C@@H](Cc2ccc(O)cc2)C(=O)N[C@@H](Cc2ccc(O)cc2)C(=O)N[C@@H](Cc2c[nH]c3ccccc23)C(=O)O)NC(=O)[C@@H]2CCCN2C1=O [Compound I-7] (H-CNWHGTAPCWFFNYYW-OH; disulfide 1-9),> 5
> 0.04,CC(C)[C@H](NC(=O)[C@H](Cc1c[nH]c2ccccc12)NC(=O)[C@@H]1CC(=O)NCC(=O)N[C@@H](CC(N)=O)C(=O)N[C@@H](Cc2c[nH]c3ccccc23)C(=O)N[C@@H](Cc2c[nH]cn2)C(=O)NCC(=O)N[C@@H]([C@@H](C)O)C(=O)N[C@@H](C)C(=O)N2CCC[C@H]2C(=O)N1)C(=O)N[C@@H](Cc1ccc(O)cc1)C(=O)N[C@@H](Cc1ccccc1)C(=O)N[C@@H](C)C(=O)N[C@@H](Cc1ccccc1)C(=O)N[C@@H](Cc1ccccc1)C(=O)N[C@@H](CC(N)=O)C(=O)N[C@@H](Cc1ccc(O)cc1)C(=O)N[C@@H](Cc1ccc(O)cc1)C(=O)N[C@@H](Cc1c[nH]c2ccccc12)C(=O)O [Compound I-33] (GNWHGTAPDWVYFAFFNYYW-OH; lactam N-9),
> 0.051,CC[C@H](C)[C@H](NC(=O)[C@H](CC(=O)O)NC(=O)[C@H](CC(C)C)NC(=O)[C@H](Cc1c[nH]cn1)NC(=O)[C@H](C)NC(=O)[C@H](Cc1c[nH]c2ccccc12)NC(=O)[C@@H]1CC(=O)NCC(=O)N[C@@H](CC(N)=O)C(=O)N[C@@H](Cc2c[nH]c3ccccc23)C(=O)N[C@@H](Cc2c[nH]cn2)C(=O)NCC(=O)N[C@@H]([C@@H](C)O)C(=O)N[C@@H](C)C(=O)N2CCC[C@H]2C(=O)N1)C(=O)N[C@H](C(=O)N[C@@H](Cc1c[nH]c2ccccc12)C(=O)O)[C@@H](C)CC [Compound I-35] (GNWHGTAPDWAHLDIIW-OH; lactam N-9 (inferred); C-terminus assumed),
> 0.072,CC[C@H](C)[C@H](NC(=O)[C@H](CC(N)=O)NC(=O)[C@H](Cc1ccc(O)cc1)NC(=O)[C@H](Cc1ccc(O)cc1)NC(=O)[C@H](CC(N)=O)NC(=O)[C@H](Cc1ccccc1)NC(=O)[C@H](Cc1ccccc1)NC(=O)[C@H](Cc1c[nH]c2ccccc12)NC(=O)[C@@H]1CC(=O)NCC(=O)N[C@@H](CC(N)=O)C(=O)N[C@@H](Cc2c[nH]c3ccccc23)C(=O)N[C@@H](Cc2c[nH]cn2)C(=O)NCC(=O)N[C@@H]([C@@H](C)O)C(=O)N[C@@H](C)C(=O)N2CCC[C@H]2C(=O)N1)C(=O)N[C@H](C(=O)N[C@@H](Cc1c[nH]c2ccccc12)C(=O)O)[C@@H](C)CC [Compound I-39] (GNWHGTAPDWFFNYYNIIW-OH; lactam N-9),
,CC[C@H](C)[C@H](NC(=O)[C@@H](NC(=O)[C@H](CC(=O)O)NC(=O)[C@H](CCC(N)=O)NC(=O)[C@H](Cc1c[nH]cn1)NC(=O)[C@H](C)NC(=O)[C@H](Cc1ccccc1)NC(=O)[C@H](Cc1ccc(O)cc1)NC(=O)[C@H](CC(C)C)NC(=O)[C@H](Cc1c[nH]c2ccccc12)NC(=O)[C@H](CC(=O)O)NC(=O)[C@@H]1CCCN1C(=O)[C@H](C)NC(=O)[C@@H](NC(=O)CNC(=O)[C@H](Cc1c[nH]cn1)NC(=O)[C@H](Cc1c[nH]c2ccccc12)NC(=O)[C@H](CC(N)=O)NC(=O)CN)[C@@H](C)O)C(C)C)C(=O)N[C@@H](Cc1c[nH]c2ccccc12)C(=O)O [Compound I-38],0.00033
,C[C@@H]1NC(=O)[C@H]([C@@H](C)O)NC(=O)CNC(=O)[C@H](Cc2c[nH]cn2)NC(=O)[C@H](Cc2c[nH]c3ccccc23)NC(=O)[C@H](CC(N)=O)NC(=O)CNC(=O)C[C@@H](C(=O)N[C@@H](Cc2c[nH]c3ccccc23)C(=O)N[C@@H](Cc2ccccc2)C(=O)N[C@@H](Cc2ccccc2)C(=O)N[C@@H](CC(N)=O)C(=O)N[C@@H](Cc2ccc(O)cc2)C(=O)N[C@@H](Cc2ccc(O)cc2)C(=O)N[C@@H](Cc2ccc3ccccc3c2)C(=O)O)NC(=O)[C@@H]2CCCN2C1=O [Compound I-49],0.0063
,CC[C@H](C)[C@H](NC(=O)[C@H](CC(=O)O)NC(=O)[C@H](CC(C)C)NC(=O)[C@H](Cc1c[nH]cn1)NC(=O)[C@H](C)NC(=O)[C@H](Cc1ccccc1)NC(=O)[C@H](Cc1ccc(O)cc1)NC(=O)[C@@H](NC(=O)[C@H](Cc1c[nH]c2ccccc12)NC(=O)[C@H](CC(=O)O)NC(=O)[C@@H]1CCCN1C(=O)[C@H](C)NC(=O)[C@@H](NC(=O)CNC(=O)[C@H](CCCCN)NC(=O)[C@H](Cc1c[nH]c2ccccc12)NC(=O)[C@H](CC(N)=O)NC(=O)CN)[C@@H](C)O)C(C)C)C(=O)N[C@H](C(=O)N[C@@H](Cc1c[nH]c2ccccc12)C(=O)O)[C@@H](C)CC [Compound I-44],0.00029
,C[C@@H]1NC(=O)[C@H]([C@@H](C)O)NC(=O)CNC(=O)[C@H](Cc2c[nH]cn2)NC(=O)[C@H](Cc2c[nH]c3ccccc23)NC(=O)[C@H](CC(N)=O)NC(=O)CNC(=O)C[C@@H](C(=O)O)NC(=O)[C@@H]2CCCN2C1=O [Compound I-14] (GNWHGTAPD-OH; lactam N-9),> 1
> 0.045,CC[C@H](C)[C@H](NC(=O)[C@H](CC(=O)O)NC(=O)[C@H](CC(C)C)NC(=O)[C@H](Cc1c[nH]cn1)NC(=O)[C@H](C)NC(=O)[C@H](Cc1ccc(O)cc1)NC(=O)[C@H](Cc1ccc(O)cc1)NC(=O)[C@H](CC(N)=O)NC(=O)[C@H](Cc1ccccc1)NC(=O)[C@H](Cc1ccccc1)NC(=O)[C@H](Cc1c[nH]c2ccccc12)NC(=O)[C@@H]1CC(=O)NCC(=O)N[C@@H](CC(N)=O)C(=O)N[C@@H](Cc2c[nH]c3ccccc23)C(=O)N[C@@H](Cc2c[nH]cn2)C(=O)NCC(=O)N[C@@H]([C@@H](C)O)C(=O)N[C@@H](C)C(=O)N2CCC[C@H]2C(=O)N1)C(=O)N[C@H](C(=O)N[C@@H](Cc1c[nH]c2ccccc12)C(=O)O)[C@@H](C)CC [Compound I-40] (GNWHGTAPDWFFNYYAHLDIIW-OH; lactam N-9 (inferred); C-terminus assumed),
< 0.00013,CC[C@H](C)[C@H](NC(=O)[C@H](CC(=O)O)NC(=O)[C@H](CC(C)C)NC(=O)[C@H](Cc1c[nH]cn1)NC(=O)[C@H](C)NC(=O)[C@H](Cc1ccccc1)NC(=O)[C@H](Cc1ccc(O)cc1)NC(=O)[C@@H](NC(=O)[C@H](Cc1c[nH]c2ccccc12)NC(=O)[C@H](CC(=O)O)NC(=O)[C@@H]1CCCN1C(=O)[C@H](C)NC(=O)[C@@H](NC(=O)CNC(=O)[C@H](Cc1c[nH]cn1)NC(=O)[C@H](Cc1c[nH]c2ccccc12)NC(=O)[C@H](CC(N)=O)NC(=O)CN)[C@@H](C)O)C(C)C)C(=O)N[C@H](C(=O)N[C@@H](Cc1c[nH]c2ccccc12)C(=O)O)[C@@H](C)CC [Compound I-26],
0.00083,CC[C@H](C)[C@H](NC(=O)[C@H](CC(=O)O)NC(=O)[C@H](CC(C)C)NC(=O)[C@H](Cc1c[nH]cn1)NC(=O)[C@H](C)NC(=O)[C@H](Cc1ccc(O)cc1)NC(=O)[C@H](Cc1ccc(O)cc1)NC(=O)[C@@H](NC(=O)[C@H](Cc1c[nH]c2ccccc12)NC(=O)[C@H](CC(=O)O)NC(=O)[C@@H]1CCCN1C(=O)[C@H](C)NC(=O)[C@@H](NC(=O)CNC(=O)[C@H](Cc1c[nH]cn1)NC(=O)[C@H](Cc1c[nH]c2ccccc12)NC(=O)[C@H](CC(N)=O)NC(=O)CN)[C@@H](C)O)C(C)C)C(=O)N[C@H](C(=O)N[C@@H](Cc1c[nH]c2ccccc12)C(=O)O)[C@@H](C)CC [Compound I-37],
